{"source": "patent US9597307B2", "about": "(priority 2012, dated 2017)", "key": {"[1]": {"conditions": "cited from earlier work; for toxicity in studies / clinical testing: other indications (cancer and immune diseases), high doses"}, "[2]": {"system": "animals on high-fat diet"}, "[3]": {"system": "T2D signature", "conditions": "Wistar rats, high fructose diet, two weeks of daily injections 10 mg/kg; p<0.0001 using Fisher's exact test", "quoted_text": "In a first attempt to use gene network analyses for drug repositioning, a panel of 50 genes that are perturbed in the liver in T2D (‘T2D signature’) were identified. The genes were selected using differential expression analysis, causality tests, and a Bayesian network algorithm to identify genes that regulate the expression of several other disease genes (‘key regulators’).\nA high fructose diet was used to induce insulin resistance on a group of Wistar rats."}, "[4]": {"system": "H-4-II-E cells", "conditions": "without or with 10 or 100 nM insulin, FIG. 3", "experimental": "H-4-II-E cells were seeded 110,000/well in 24-well plates in their usual medium (EMEM from ATCC, no 30-2003 with addition of 10% FBS and penicillin/streptomycin) at day 0 and incubated with 0.25 mM palmitate-BSA (ratio 10:3) for 16 h ON day 2-3. […] The cells were washed 3 times with glucose output medium (GOM) without glucogenic substrates (118 mM NaCl, 4.7 mM KCl, 1.2 mM MgSO4, 1.2 mM KH2P04, 1.2 mM CaC12, 20 mM NaHCO3, 25 mM HEPES pH 7.4 and 0.025% BSA). Then 500 ul of GOM (118 mM NaCl, 4.7 mM KCl, 1.2 mM MgSO4, 1.2 mM KH2PO4, 1.2 mM CaCl2, 20 mM NaCO3, 25 mM HEPES pH 7.4, 0.025% BSA, 20 mM lactate, 2 mM pyruvate and 10 mM glutamine) and GOM with the addition of 10 or 100 nM insulin was added, and the cells were allowed to incubate for 5 h. After that, most of the incubation medium (375 ul) was removed and used for glucose measurements. The cells were washed once with cold PBS and lyzed with 200 ul RIPA buffer for determination of protein concentration. […] Glucose concentration in the buffer samples was determined using the AmplexRed Glucose/Glucose Oxidase Assay Kit (LifeTechnologies no. A22189) following the manufacturer's instructions. Protein concentration in the cell lysates was measured using Pierce BCA Protein Assay Kit (ThermoScientific no. 23225)."}, "[5]": {"system": "Wistar rats", "conditions": "high fructose diet, two weeks of daily injections 10 mg/kg, vs vehicle-treated control", "text": "For intraperitoneal pyruvate tolerance tests, a high fructose diet was used to induce insulin resistance on a group of Wistar rats. […] Intraperitoneal pyruvate tolerance tests are a procedure where pyruvate is converted to glucose in gluconeo-genesis. The test specifically reflects the insulin sensitivity of the liver."}}, "note": "Read-outs that look alike come from different tables or passages of the source."}
{"smiles": "C[S+]([O-])CCCCN=C=S", "note": "(stereo not drawn) [sulforaphane]", "values": [{"measurement": "serious adverse events in ongoing studies", "setting": "[1]; ongoing studies for other indications", "result": "no serious adverse events have been reported"}, {"measurement": "toxicity in studies / clinical testing", "setting": "[1]", "result": "low toxicity even at high doses"}, {"measurement": "toxicity in studies / clinical testing", "setting": "[1]; listed as Sulforaphane", "result": "very low toxicity even at high doses"}, {"measurement": "result of the experiments repeated in animals on high-fat diet", "setting": "[2]", "result": "positive results"}, {"measurement": "reversal of genes in the T2D signature in liver", "setting": "[3]", "result": "a major fraction of the genes in the T2D signature was reversed"}, {"measurement": "hepatic glucose output, insulin-sensitive liver cells", "setting": "[4]; 10 uM sulforaphane for 28 h", "result": "decreases hepatic glucose output"}, {"measurement": "hepatic glucose output, insulin-resistant (induced by palmitate) liver cells", "setting": "[4]; 0.25 mM palmitate-BSA 16 h, then 10 uM sulforaphane for 28 h", "result": "decreases hepatic glucose output"}, {"measurement": "intraperitoneal pyruvate tolerance (insulin sensitivity of the liver)", "setting": "[5]; FIG. 2", "result": "significant positive effect"}, {"measurement": "intraperitoneal pyruvate tolerance (insulin sensitivity of the liver)", "setting": "[5]; FIG. 2, listed as Sulforaphane", "result": "showed significant differences from a vehicle-treated control group"}]}
